The values below come from patent publication US6472386B1, “Cyclic diamine compound with 5-membered ring groups” (Kowa Co., Ltd., priority 2001, dated 2002).

In the experiment the test system is adhesion of U937 cells to HUVEC stimulated by IL-1β or TNFα. The experiment is described as follows: Inhibitory effect on cell adhesion (U937 cells adhering to stimulated HUVEC). The class given is cell-based. To be noted: Homo sapiens, compound at 1 μM. The protocol: This test was conducted by reference to the method of Ross et al. (J. Biol. Chem., 267, 8537-8543 (1992)). More specifically, after human umbilical venous endothelial cells (HUVEC) were cultured on a 48-well plate to confluent growth, IL-1β or TNFα was added thereto. Upon elapsed time of 5 hours after the addition, U937, which is a human monocytic/histocytic cell fluorescence-labeled with PKH2 (product of Dainippon Pharmaceutical Co., Ltd.), was added in a proportion of 1×10^6 cells per well. After the plate was left at rest at room temperature for 1 hour, unadhered U937 was washed out and lysed in 1% Triton X-100 to measure a remaining fluorescence intensity (excitation wavelength: 480 nm; measuring wavelength: 530 nm). HUVEC and U937 were cultured in EGM-2 (product of Sanko Junyaku K.K.) and 10% FCS-containing RPMI1640, respectively. Each test agent was added to HUVEC upon the addition of IL-1β or TNFα and to U937 24 hours prior to the cell adhesion test. The inhibitory activity was calculated out according to the equation [100-(C−B)/(A−B)×100 (%)], wherein A is the number of U937 cells adhered to HUVEC stimulated by IL-1β or TNFα when no test agent was added, B is the number of U937 cells adhered to HUVEC not stimulated by IL-1β or TNFα when no test agent was added, and C is the number of U937 cells adhered to HUVEC stimulated by IL-1β or TNFα when the test agent was added. As control compounds, Test Compound 1 described in Japanese Patent Application Laid-Open No. 9-143075 and dilazep described in Japanese Patent Application Laid-Open No. 11-92382 were simultaneously evaluated.

Where [1] appears, read: HUVEC stimulated by IL-1β, read-out: Percent inhibition (%) Stimulation by IL-1β.
Where [2] appears, read: HUVEC stimulated by TNFα, read-out: Percent inhibition (%) Stimulation by TNFα.

Where two headings read alike, the source gives them in different places.

As usually defined, the inhibition is the relative decrease from the control value, in per cent. As for `COc1cc(C(=O)Nc2nc(CN3CCCN(Cc4csc(NC(=O)c5cc(OC)c(OC)c(OC)c5)n4)CC3)cs2)cc(OC)c1OC` [Example 9, N,N′-bis[[2-(3,4,5-Trimethoxybenzamido)-thiazol-4-yl]methyl]homopiperazine], the inhibition at 1 µM by setting is: under setting [1], 40%; under setting [2], 50%.
The like results for `COc1cc(C#Cc2nc(CN3CCCN(Cc4csc(C#Cc5cc(OC)c(OC)c(OC)c5)n4)CC3)cs2)cc(OC)c1OC` [Example 7, N,N′-bis[[2-(3,4,5-Trimethoxyphenylethynyl)-thiazol-4-yl]methyl]homopiperazine] were, in that order, 46% and 60%.
The like results for `COc1cc(C(=O)Nc2nc(CN3CCN(Cc4csc(NC(=O)c5cc(OC)c(OC)c(OC)c5)n4)CC3)cs2)cc(OC)c1OC` [Example 8, N,N′-bis[[2-(3,4,5-Trimethoxybenzamido)-thiazol-4-yl]methyl]piperazine] were, in that order, 64% and 58%.
With `COc1cc(-c2nc(CCCN3CCCN(CCCc4csc(-c5cc(OC)c(OC)c(OC)c5)n4)CC3)cs2)cc(OC)c1OC` [Example 6, N,N′-bis[3-(2-(3,4,5-Trimethoxyphenyl)-thiazol-4-yl)propyl]homopiperazine], the inhibition at 1 µM stood at 54% under setting [1] and 45% under setting [2].
In the case of `COc1cc(C(=O)OCCCN2CCCN(CCCOC(=O)c3cc(OC)c(OC)c(OC)c3)CC2)cc(OC)c1OC` [Dilazep, dilazep, reference compound], the inhibition at 1 µM is, setting by setting: under setting [1], 0%; under setting [2], 12%.
On the same counts, the results for `COc1cc(-c2cc(CN3CCN(Cc4cc(-c5cc(OC)c(OC)c(OC)c5)n(Cc5ccccc5)n4)CC3)nn2Cc2ccccc2)cc(OC)c1OC` [Example 16, N,N′-bis[[1-Benzyl-5-(3,4,5-trimethoxy-phenyl)pyrazol-3-yl]methyl]piperazine] are 30% and 51%.
Regarding `COc1cc(-c2nc(C)c(CN3CCCN(Cc4sc(-c5cc(OC)c(OC)c(OC)c5)nc4C)CC3)s2)cc(OC)c1OC` [Example 11, N,N′-bis[[4-Methyl-2-(3,4,5-trimethoxy-phenyl)thiazol-5-yl]methyl]homopiperazine Dimaleate], the inhibition at 1 µM under setting [1] stood at 33% and the inhibition at 1 µM under setting [2] is 53%.
